In patent publication US20130071328A1, “Propynoic Acid Carbamoyl Methyl-Amides and Pharmaceutical Compositions and Methods Based Thereon” (UNIVERSITY OF SOUTHERN CALIFORNIA, priority 2011, published 2013):

What was measured:
[1] = tested on: doxorubicin-resistant NCI/ADR-RES ovarian cancer cell line; assay: Cytotoxicity assay, NCI/ADR-RES; type: cell-based; conditions: Homo sapiens
Protocol: (§1) Cytotoxicity was assessed by MTT assay as described previously. 43 In brief, cells were seeded in 96-well microtiter plates and allowed to attach overnight. Cells were subsequently treated with continuous exposure to corresponding drugs for 72 h. At the end of treatments, an MTT solution (at a final concentration of 0.5 mg/mL) was added to each well, and cells were incubated for 4 h at 37° C. After removal of the supernatant, DMSO was added, and the absorbance was read at 570 nm. All assays were done in triplicate. The IC50 was then determined for each drug from a plot of log(drug concentration) versus percentage of cells killed.

[2] = tested on: OVCAR3 ovarian cancer cell line; assay: In vitro cytotoxicity, OVCAR3; type: cell-based; conditions: Homo sapiens, OVCAR-3; Table 4, ovarian cancer panel
Protocol: as §1

[3] = tested on: OVCAR8 ovarian cancer cell line; assay: In vitro cytotoxicity, OVCAR8; type: cell-based; conditions: Homo sapiens, OVCAR-8; Table 4, ovarian cancer panel
Protocol: as §1

[4] = tested on: HEY ovarian cancer cell line; assay: Cytotoxicity assay, HEY; type: cell-based; conditions: Homo sapiens
Description: (§2) The human breast cancer cell line MDA-MB-435 and the colon cancer cell line HT29 were purchased from the American Type Cell Culture (Manassas, Va.). Colon cancer cell lines HCT116 p53^+/+ and HCT116 p53^−/− were kindly provided by Dr. Bert Vogelstein (Johns Hopkins Medical Institutions, Baltimore, Md.). The human ovarian carcinoma cell line (HEY), naturally resistant to cisplatin (CDDP), was kindly provided by Dr. Louis Dubeau (USC Norris Cancer Center). The bladder cancer cell lines were kindly provided by Dr. Richard Cote (USC Keck School of Medicine). Cells were maintained as monolayer cultures in the appropriate media: RPMI-1640 (HT29, HCT116 p53^+/+, HCT116 p53^−/−, and HEY cell lines) or DMEM (MDA-MB-435 and UMUC3 cell lines) supplemented with 10% fetal bovine serum (FBS) (HyClone, Road Logan, Utah) at 37° C. in a humidified atmosphere of 5% CO2. To remove the adherent cells from the flask for subculture and counting, cells were washed with PBS without calcium or magnesium, incubated with a small volume of 1×trypsin-EDTA solution (Sigma-Aldrich, St. Louis, Mo.) for 5 min, resuspended with fresh culture medium, and centrifuged at 1200 rpm for 5 min. All experiments were performed using cells in exponential growth phase. Cells were routinely checked for Mycoplasma contamination using PlasmaTest kit (InvivoGen, San Diego, Calif.).
as §1

[5] = tested on: HCT116 p53^−/− colon cancer cell line; assay: MTT cytotoxicity assay, HCT116 p53-/-; type: cell-based; conditions: Homo sapiens, HCT-116, 72 h exposure
Description: as §2, §1

[6] = tested on: UMUC3 bladder cancer cell line; assay: MTT cytotoxicity assay, UMUC3; type: cell-based; conditions: Homo sapiens, 72 h exposure
Description: as §2, §1

[7] = tested on: 5637 bladder cancer cell line; assay: MTT cytotoxicity assay, 5637; type: cell-based, human; conditions: Homo sapiens, 72 h exposure
Description: as §2, §1

[8] = tested on: HCT116 p53^+/+ colon cancer cell line; assay: MTT cytotoxicity assay, HCT116 p53+/+; type: cell-based; conditions: Homo sapiens, HCT-116, 72 h exposure
Description: as §2, §1

[9] = tested on: MDA-MB-435 breast cancer cell line; assay: MTT cytotoxicity assay, MDA-MB-435; type: cell-based, human; conditions: Homo sapiens, MDA-MB-435, 72 h, 72 h exposure
Description: as §2, §1

[10] = tested on: HT29 colon cancer cell line; assay: MTT cytotoxicity assay, HT29; type: cell-based; conditions: Homo sapiens, HT-29, 72 h exposure
Description: as §2, §1

Row | Structure (SMILES) | IC50 ([1]; Table 4, ovarian cancer panel) | IC50 [2] | IC50 [3] | IC50 ([4]; MTT, 72 h exposure (Table 2)) | IC50 [5] | IC50 [6] | IC50 ([1]; MTT, 72 h exposure (Table 2)) | IC50 [7] | IC50 [8] | IC50 [9] | IC50 [10] | IC50 ([4]; Table 4, ovarian cancer panel)
1 | C#CC(=O)N(CC(=O)NC1CCCC1)c1ccc(OC)cc1OC [Compound 28] | 0.02 µM | 0.23 µM | 0.52 µM | – | – | – | – | – | – | – | – | –
2 | C#CC(=O)N(c1cc(OC)ccc1OC)C(C(=O)NC1CCCC1)c1cccs1 (stereo not shown) [Compound 7, N-[2-(Cyclopentylamino)-2-oxo-1-thien-2-ylethyl]-N-(2,5-dimethoxyphenyl)Propynamide] | – | – | – | 1.5 ± 1.1 µM | 4.7 ± 2.3 µM | 5.7 ± 1.5 µM | 0.3 µM | 0.3 µM | 5.7 ± 0.6 µM | 0.5 ± 0.3 µM | 1.6 ± 1 µM | –
3 | C#CC(=O)N(c1cc(OC)cc(OC)c1)C(C(=O)NC1CCCCC1)c1ccc(OC)c(O)c1 (stereo not shown) [Compound 35] | 5.5 µM | 7.5 µM | 2.9 µM | – | – | – | – | – | – | – | – | –
4 | C#CC(=O)N(c1cccc(C(F)(F)F)c1)C(C(=O)NC1CCCCC1)c1cccs1 (stereo not shown) [Compound 13, N-[2-(Cyclohexylamino)-2-oxo-1-thien-2-ylethyl]-N-[3-(trifluoromethyl)phenyl]Propynamide] | – | – | – | 5.2 ± 3.6 µM | 10.4 ± 0.2 µM | > 20 µM | 0.4 µM | 1.6 ± 0.7 µM | 8.3 ± 1.1 µM | 6.9 ± 0.8 µM | 6 ± 1.4 µM | –
5 | C#CC(=O)N(c1ccc(OC)cc1OC)C(C(=O)NCC(=O)O)c1cccs1 (stereo not shown) [Compound 39] | 8 µM | > 10 µM | 6 µM | – | – | – | – | – | – | – | – | –
6 | C#CC(=O)N(c1ccc2c(c1)OCCO2)C(C(=O)NC1CCCC1)c1ccccc1 (stereo not shown) [Compound 8, N-[2-(Cyclopentylamino)-2-oxo-1-phenylethyl]-N-(2,3-dihydro-1,4-benzodioxin-6-yl)Propynamide] | – | – | – | 4.1 ± 3.4 µM | > 20 µM | > 20 µM | 0.3 µM | 1.9 ± 0.6 µM | 17.3 ± 1.1 µM | 1.8 ± 0.6 µM | 3.2 ± 1.2 µM | –
7 | C#CC(=O)N(c1cc(OC)c(OC)c(OC)c1)C(C(=O)NC1CCCC1)c1cccs1 (stereo not shown) [Compound 27] | 0.33 µM | 0.42 µM | 2.2 µM | – | – | – | – | – | – | – | – | –
8 | C#CC(=O)N(c1ccc(O)cc1OC)C(C(=O)NCC(=O)OCC)c1cccs1 (stereo not shown) [Compound 40] | 12.8 ± 3.8 µM | – | 10.4 ± 1.6 µM | – | – | – | – | – | – | – | – | –
9 | C#CC(=O)N(c1ccc(-n2cnnn2)c(C)c1)C(C(=O)NCC(=O)OCC)c1ccccc1F (stereo not shown) [Compound 20] | 1.3 µM | – | 0.2 µM | – | – | – | – | – | – | – | – | –
10 | C#CC(=O)N(c1ccc(-n2cnnn2)c(C)c1)C(C(=O)NC1CCCC1)c1c(F)c(F)c(F)c(F)c1F (stereo not shown) [Compound 24] | 0.45 µM | 0.6 µM | 5 µM | – | – | – | – | – | – | – | – | –
11 | C#CC(=O)N(c1ccc(OC)cc1OC)C(C(=O)NCC(=O)OCC)c1ccccc1 (stereo not shown) [Compound 41] | – | – | 0.4 ± 0.2 µM | – | – | – | – | – | – | – | – | –
12 | C#CC(=O)N(c1ccc(OC)cc1OC)C(C(=O)NCC(=O)NCCN1CCOCC1)c1cccs1 (stereo not shown) [Compound 45] | > 10 µM | – | 5 µM | – | – | – | – | – | – | – | – | 0.32 µM
13 | C#CC(=O)N(c1ccc(OC)cc1OC)C(C(=O)NCC(=O)OCC)c1cccs1 (stereo not shown) [Compound 38] | 2.6 ± 1.5 µM | 0.32 µM | 2.8 ± 0.7 µM | – | – | – | – | – | – | – | – | –
14 | C#CC(=O)N(c1ccc2ccccc2c1)C(C(=O)NC1CCCC1)c1ccccc1 (stereo not shown) [Compound 14, N-[2-(Cyclopentylamino)-2-oxo-1-phenylethyl]-N-(2-naphthyl)Propynamide] | – | – | – | 1.7 ± 1.1 µM | 7.4 ± 0.8 µM | > 20 µM | 0.3 µM | 0.5 ± 0.3 µM | 6.8 ± 1.8 µM | 7.3 µM | 4.9 ± 3.4 µM | –
15 | C#CC(=O)N(c1ccc(OC)cc1OC)C(C(=O)NC1CCCC1)c1cccs1 (stereo not shown) [Compound 5, N-[2-(Cyclopentylamino)-2-oxo-1-thien-2-ylethyl]-N-(2,4-dimethoxyphenyl)Propynamide] | – | – | – | 4.1 ± 3.4 µM | 7 ± 0.7 µM | > 20 µM | 0.4 µM | 1.7 ± 0.8 µM | 6.9 ± 0.6 µM | 1.7 ± 0.5 µM | 2.3 ± 0.3 µM | –
16 | C#CC(=O)N(c1ccc(OC)c(OC)c1)C(C(=O)NC1CCCC1)c1cccs1 (stereo not shown) [Compound 3, N-[2-(Cyclopentylamino)-2-oxo-1-thien-2-ylethyl]-N-(3,4-dimethoxyphenyl)Propynamide] | – | – | – | 3.4 ± 1.5 µM | 9.6 ± 4.9 µM | > 20 µM | 0.9 ± 0.8 µM | 2 ± 0.7 µM | 7.7 ± 1.9 µM | 2 ± 0.1 µM | 5.5 ± 4.2 µM | –
17 | C#CC(=O)N(c1cccc(OC)c1)C(C(=O)NC1CCCC1)c1cccs1 (stereo not shown) [Compound 6, N-[2-(Cyclopentylamino)-2-oxo-1-thien-2-ylethyl]-N-(3-methoxyphenyl)Propynamide] | – | – | – | 1.9 ± 0.7 µM | 5.6 ± 0.8 µM | 6.9 ± 1.2 µM | 0.3 µM | 0.3 µM | 7.2 ± 0.2 µM | – | 2.3 ± 0.3 µM | –
18 | C#CC(=O)N(Cc1ccc2c(c1)OCO2)C(C(=O)NCc1ccccc1)c1ccccc1F (stereo not shown) [Compound 15, N-(1,3-Benzodioxol-5-ylmethyl)-N-[2-(benzylamino)-1-(2-fluorophenyl)-2-oxoethyl]Propynamide] | – | – | – | > 10 µM | > 20 µM | > 20 µM | 1.3 ± 1 µM | 2.8 ± 1.1 µM | > 10 µM | > 10 µM | > 10 µM | –
19 | C#CC(=O)N(CC(N)=O)c1ccc(OC)cc1OC [Compound 29] | – | – | 0.5 ± 0.3 µM | – | – | – | – | – | – | – | – | –
20 | C#CC(=O)N(c1cccc(O)c1)C(C(=O)NC1CCCC1)c1cccs1 (stereo not shown) [Compound 26] | 0.32 µM | 1.5 µM | 2.2 µM | – | – | – | – | – | – | – | – | –
21 | C#CC(=O)N(c1cccc(C(F)(F)F)c1)C(C(=O)NCc1ccccc1)c1cccs1 (stereo not shown) [Compound 16, N-[2-(Benzylamino)-2-oxo-1-thien-2-ylethyl]-N-[3-(trifluoromethyl)-phenyl]Propynamide] | – | – | – | 7.1 ± 2.6 µM | 16.1 ± 5.6 µM | > 20 µM | 0.7 ± 0.6 µM | 1.2 ± 1.1 µM | 9 ± 1.4 µM | 4.2 ± 3 µM | 7.3 ± 0.3 µM | –
22 | C#CC(=O)N(Cc1ccco1)C(C(=O)NC1CCCC1)c1ccccc1F (stereo not shown) [Compound 10, N-[2-(Cyclopentylamino)-1-(2-fluorophenyl)-2-oxoethyl]-N-(2-furylmethyl)Propynamide] | – | – | – | 4.3 ± 3.9 µM | 13 ± 2.8 µM | > 20 µM | 1.2 ± 0.4 µM | 2.9 ± 0.8 µM | 10.5 µM | 1.7 ± 0.6 µM | > 10 µM | –
23 | C#CC(=O)N(Cc1ccccc1Cl)C(C(=O)NC1CCCC1)c1ccccc1 (stereo not shown) [Compound 17, N-(2-Chlorobenzyl)-N-[2-(cyclopentylamino)-2-oxo-1-phenylethyl]Propynamide] | – | – | – | 5.8 ± 1.3 µM | 7.3 ± 1.4 µM | > 20 µM | 2.2 ± 0.2 µM | 1.8 ± 0.1 µM | 7.7 ± 0.5 µM | 8.2 ± 0.2 µM | 5.4 ± 3 µM | –
24 | C#CC(=O)N(Cc1ccc(OC)cc1OC)C(C(=O)NCC(=O)OCC)c1ccccc1 (stereo not shown) [Compound 42] | – | – | 3.4 ± 0.4 µM | – | – | – | – | – | – | – | – | –
25 | C#CC(=O)N(c1cccc(C(F)(F)F)c1)C(C(=O)NC1CCCC1)c1ccc(F)cc1 (stereo not shown) [Compound 12, N-[2-(Cyclopentylamino)-1-(4-fluorophenyl)-2-oxoethyl]-N-[3-(trifluoromethyl)phenyl]Propynamide] | – | – | – | 2.4 ± 0.2 µM | 6.9 ± 0.6 µM | 8 ± 1.4 µM | 0.4 µM | 0.5 ± 0.3 µM | 7.5 ± 0.7 µM | 5.2 ± 1.2 µM | 4.8 ± 3.2 µM | –
26 | C#CC(=O)N(c1cc(OC)cc(OC)c1)C(C(=O)NC1CCCC1)c1ccc(OC)cc1 (stereo not shown) [Compound 11, N-[2-(Cyclopentylamino)-1-(4-methoxyphenyl)-2-oxoethyl]-N-(3,5-dimethoxyphenyl)Propynamide] | – | – | – | 2.3 ± 0.4 µM | > 20 µM | > 20 µM | 0.3 µM | 1.9 ± 0.6 µM | 15 µM | 2.4 ± 0.1 µM | 2.1 ± 0.4 µM | –
27 | C#CC(=O)N(c1ccccc1F)C(C(=O)NC1CCCCC1)c1ccccc1F (stereo not shown) [Compound 19, N-[2-(Cyclohexylamino)-1-(2-fluorophenyl)-2-oxoethyl]-N-(2-fluorophenyl)Propynamide] | – | – | – | 5.6 ± 2.1 µM | 10.1 ± 2.9 µM | > 20 µM | 0.4 ± 0.1 µM | 2.1 µM | 11.9 ± 0.1 µM | 6.5 ± 2.1 µM | 7.7 ± 0.5 µM | –
